Laboratory results: US8691864B2, “Agents useful for reducing amyloid precursor protein and treating dementia and methods of use thereof” (priority 2000, dated 2014)

Tested on: APP-mRNA 5′UTR
Assay: CAT reporter assay with βAPP-mRNA 5′UTR in transfected U373 MG cells
Format: cell-based
Description: One day prior to transfection, U373 cells were plated onto 100 mm dishes at a density of 3×10^5 cells. On the day of transfection, the cells were given 5 ml of fresh media containing 10% FBS, 2 mM glutamine in DMEM. The cells were transfected using a calcium phosphate precipitation method, as per the manufacturer's protocol and described previously (Rogers et al., 1999). Briefly, for each plate, three μg of DNA (5′UTR APP-PSV2-CAT or PSV2-CAT vector) were placed in a final volume of […] of 250 mM CaCl2. The chloramphenicol acetyl transferase (CAT) gene was used as a reporter gene. The DNA solution was slowly pipetted into an aerated, equivalent volume of 2×HeBS, pH 7.05. The resulting precipitate was allowed to stand 10-20 min at RT before its addition to the cells. After 18 h, the medium was changed and the transfected cells were left for two days before drug treatment.
The cell lysates from transfected U373 cells treated with phenserine were analyzed for their CAT activity using a colorimetric enzyme immunoassay (Boehringer Mannheim, Indianapolis, Ind.). Briefly, 50 μg of protein (an amount previously found to lie within the linear range of the assay) were placed onto anti-CAT coated microtiter plate modules and allowed to bind for 1 h at 37° C. The plates were washed thoroughly after each step. Next, a digoxigenin-labeled anti-CAT antibody was added to the samples and incubated for 1 h at 37° C. A subsequent antibody, anti-digoxigenin conjugated to peroxidase, was placed in the wells for another hour under similar conditions. Finally peroxidase substrate, ABTS, was added to each well and the absorbance of each sample was measured at a wavelength of 405 nm.
The plasmid PSV2-APP-CatD was provided by Dr. Rogers (1999). […]
Quantitation of the fold stimulus of CAT gene activity conferred by the 5′ UTR βAPP-mRNA was measured. ELISA readings of CAT expression were measured at 405 nm. […] In other assays where the time of treatment was extended to 48 hours, only a 2-fold decrease in CAT reporter mRNA was detected with phenserine treatment.

Structure (SMILES): CN1CC[C@@]2(C)c3cc(OC(=O)Nc4ccccc4)ccc3N(C)[C@@H]12 [(−)-phenserine]
- CAT activity in pSV2 CAT (parental vector) transfected cells (control vector, all time points): no inhibition
- decrease of CAT gene activity conferred by the 5′ UTR βAPP-mRNA (pSV2 (APP) CAT transfected U373, 50 μM, 1 hour): 4 fold
- decrease in CAT activity (pSV2 (APP) CAT transfected U373, treatment extended to 48 hours): 2 fold
